Measured values: US9133183B2, “Imidazolidinones and analogs exhibiting anti-cancer and anti-proliferative activities” (Deciphera Pharmaceuticals, LLC, priority 2013, dated 2015)

Tests used:
[1] = test system: M-NFS-60 cells; experiment: M-NFS-60 cell proliferation assay (resazurin); assay type: cell-based; conditions: 67 h incubation
Method in brief: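 Cells kept in medium containing 20 ng/mL mouse recombinant M-CSF. Fluorescence was read at ex 540/em 600 nm, and IC50 was fitted from percent inhibition across a range of inhibitor concentrations.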

[2] = molecular target: unphosphorylated c-KIT kinase (uKIT, Seq. ID no. 2) (Homo sapiens (Human), UniProt P10721); experiment: uKit kinase assay (coupled pyruvate kinase/lactate dehydrogenase); assay type: biochemical; conditions: enzymatic assay, ATP 2000 μM
Method in brief: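 The read-out was a continuous PK/LDH-coupled decrease in NADH absorbance at 340 nm, monitored at 30 °C over 4 h. IC50 came from % inhibition based on rates at 3–4 h. The GST-tagged unphosphorylated KIT (12 nM) was used with polyE4Y substrate, 2000 μM ATP and 10 mM Mg2+ at pH 7.5, with serially diluted compound.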

Chain of unphosphorylated c-KIT kinase (uKIT, Seq. ID no. 2) (P10721 other isoform, or with tags, fused parts or gaps): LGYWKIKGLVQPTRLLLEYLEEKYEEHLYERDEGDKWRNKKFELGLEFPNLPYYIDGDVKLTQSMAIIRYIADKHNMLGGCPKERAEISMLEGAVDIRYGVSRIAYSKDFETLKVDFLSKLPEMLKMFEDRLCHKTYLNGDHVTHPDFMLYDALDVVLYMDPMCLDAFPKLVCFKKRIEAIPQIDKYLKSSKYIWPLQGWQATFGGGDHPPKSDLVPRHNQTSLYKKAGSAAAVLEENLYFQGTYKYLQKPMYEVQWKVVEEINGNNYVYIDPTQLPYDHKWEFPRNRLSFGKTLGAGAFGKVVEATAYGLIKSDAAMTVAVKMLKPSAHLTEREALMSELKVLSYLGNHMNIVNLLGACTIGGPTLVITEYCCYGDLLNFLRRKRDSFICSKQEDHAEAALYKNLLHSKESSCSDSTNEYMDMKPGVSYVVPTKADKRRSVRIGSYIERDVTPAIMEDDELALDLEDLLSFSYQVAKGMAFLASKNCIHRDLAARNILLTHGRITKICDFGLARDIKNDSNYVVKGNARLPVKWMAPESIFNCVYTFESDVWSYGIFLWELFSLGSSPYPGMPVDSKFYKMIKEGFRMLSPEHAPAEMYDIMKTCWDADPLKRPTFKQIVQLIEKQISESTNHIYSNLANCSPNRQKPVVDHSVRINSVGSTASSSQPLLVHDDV

Structure (SMILES) | IC50 [2] [µM] | IC50 [1] [µM]
CCc1nc(NC(=O)N2CCN(C3CC3)C2=O)ccc1Oc1ccnc(-c2cnn(C)c2)c1 [Example 58, 3-cyclopropyl-N-(6-ethyl-5-((2-(1-methyl-1H-pyrazol-4-yl)pyridin-4-yl)oxy)pyridin-2-yl)-2-oxoimidazolidine-1-carboxamide] | > 1 | 0.01 to 0.1
[2H]C([2H])([2H])n1cc(-c2cc(Oc3ccc(NC(=O)N4CCN(CCOC)C4=O)nc3C)ccn2)cn1 [Example 39, 3-(2-methoxyethyl)-N-(6-methyl-5-((2-(1-(trideuteromethyl)-1H-pyrazol-4-yl)pyridin-4-yl)oxy)pyridin-2-yl)-2-oxoimidazolidine-1-carboxamide] | 0.1 to 1 | 0.1 to 1
CCN1CCN(C(=O)Nc2ccc(Oc3ccnc(-c4ccc(C5CCN(C)CC5)cc4)c3)c(C)n2)C1=O [Example 61, 3-ethyl-N-(6-methyl-5-((2-(4-(1-methylpiperidin-4-yl)phenyl)pyridin-4-yl)oxy)pyridin-2-yl)-2-oxoimidazolidine-1-carboxamide] | 0.1 to 1 | < 0.01
CCc1nc(NC(=O)N2CCN(C3CCCC3)C2=O)ccc1Oc1ccnc(-c2cnn(C)c2)c1 [Example 57, 3-cyclopentyl-N-(6-ethyl-5-((2-(1-methyl-1H-pyrazol-4-yl)pyridin-4-yl)oxy)pyridin-2-yl)-2-oxoimidazolidine-1-carboxamide] | > 1 | < 0.01
CCc1nc(NC(=O)N2CCN(C3CCOCC3)C2=O)ccc1Oc1ccnc(-c2cnn(C)c2)c1 [Example 49, N-(6-ethyl-5-((2-(1-methyl-1H-pyrazol-4-yl)pyridin-4-yl)oxy)pyridin-2-yl)-2-oxo-3-(tetrahydro-2H-pyran-4-yl)imidazolidine-1-carboxamide] | > 1 | 0.1 to 1
Cc1nc(NC(=O)N2CCN(C3CCOCC3)C2=O)ccc1Oc1ccnc(-c2cnn(C)c2)c1 [Example 3, N-(6-methyl-5-((2-(1-methyl-1H-pyrazol-4-yl)pyridin-4-yl)oxy)pyridin-2-yl)-2-oxo-3-(tetrahydro-2H-pyran-4-yl)imidazolidine-1-carboxamide] | 0.1 to 1 | 0.01 to 0.1
Cc1nc(NC(=O)N2CCN(CC(F)(F)F)C2=O)ccc1Oc1ccnc(-c2cnn(C)c2)c1 [Example 43, N-(6-methyl-5-((2-(1-methyl-1H-pyrazol-4-yl)pyridin-4-yl)oxy)pyridin-2-yl)-2-oxo-3-(2,2,2-trifluoroethyl)imidazolidine-1-carboxamide] | 0.1 to 1 | < 0.01
CCN1CCN(C(=O)Nc2cc(C)c(Oc3ccnc(-n4cnc(C)c4)c3)cn2)C1=O [Example 88, 3-ethyl-N-(4-methyl-5-((2-(4-methyl-1H-imidazol-1-yl)pyridin-4-yl)oxy)pyridin-2-yl)-2-oxoimidazolidine-1-carboxamide] | 0.1 to 1 | 0.01 to 0.1
Cc1nc(NC(=O)N2CCN(C3COC3)C2=O)ccc1Oc1ccnc(-c2cnn(C)c2)c1 [Example 20, N-(6-methyl-5-((2-(1-methyl-1H-pyrazol-4-yl)pyridin-4-yl)oxy)pyridin-2-yl)-3-(oxetan-3-yl)-2-oxoimidazolidine-1-carboxamide] | 0.1 to 1 | 0.01 to 0.1
CCc1nc(NC(=O)N2CCN(CC(F)(F)F)C2=O)ccc1Oc1ccnc(-c2cnn(C)c2)c1 [Example 56, N-(6-ethyl-5-((2-(1-methyl-1H-pyrazol-4-yl)pyridin-4-yl)oxy)pyridin-2-yl)-2-oxo-3-(2,2,2-trifluoroethyl)imidazolidine-1-carboxamide] | > 1 | 0.01 to 0.1
Cc1ccc(-c2cc(Oc3ccc(NC(=O)N4CCN(C5CCOCC5)C4=O)nc3C)ccn2)cn1 [Example 54, N-(6-methyl-5-((6′-methyl-[2,3′-bipyridin]-4-yl)oxy)pyridin-2-yl)-2-oxo-3-(tetrahydro-2H-pyran-4-yl)imidazolidine-1-carboxamide] | 0.1 to 1 | 0.01 to 0.1
CCN1CCN(C(=O)Nc2ccc(Oc3ccnc(-c4cnc(C)o4)c3)cn2)C1=O [Example 117, 3-ethyl-N-(5-((2-(2-methyloxazol-5-yl)pyridin-4-yl)oxy)pyridin-2-yl)-2-oxoimidazolidine-1-carboxamide] | 0.1 to 1 | 0.1 to 1
COCCN1CCN(C(=O)Nc2ccc(Oc3ccnc(-c4cnn(C)c4)c3)cn2)C1=O [Example 10, 3-(2-methoxyethyl)-N-(5-((2-(1-methyl-11H-pyrazol-4-yl)pyridin-4-yl)oxy)pyridin-2-yl)-2-oxoimidazolidine-1-carboxamide] | 0.1 to 1 | 0.01 to 0.1
CC(=O)Nc1cc(Oc2ccc(NC(=O)N3CCN(C4CCOCC4)C3=O)nc2)ccn1 [Example 119, N-(5-((2-acetamidopyridin-4-yl)oxy)pyridin-2-yl)-2-oxo-3-(tetrahydro-2H-pyran-4-yl)imidazolidine-1-carboxamide] | 0.1 to 1 | 0.01 to 0.1
Cc1cc(NC(=O)N2CCN(C)C2=O)ncc1Oc1ccnc(-c2cnn(C)c2)c1 [Example 85, 3-methyl-N-(4-methyl-5-((2-(1-methyl-1H-pyrazol-4-yl)pyridin-4-yl)oxy)pyridin-2-yl)-2-oxoimidazolidine-1-carboxamide] | 0.01 to 0.1 | 0.01 to 0.1

More lines, main results first:

IC50 [2] [µM] | Structure (SMILES) | IC50 [1] [µM]
< 0.01 | Cn1cc(-c2cc(Oc3ccc(NC(=O)N4CCN(C5CCC(F)(F)CC5)C4=O)nc3)ccn2)cn1 [Example 25, 3-(4,4-difluorocyclohexyl)-N-(5-((2-(1-methyl-1H-pyrazol-4-yl)pyridin-4-yl)oxy)pyridin-2-yl)-2-oxoimidazolidine-1-carboxamide] | < 0.01
0.01 to 0.1 | Cc1nc(NC(=O)N2CCN(C3CCC(F)(F)CC3)C2=O)ccc1Oc1ccnc(-c2cnn(C)c2)c1 [Example 26, 3-(4,4-difluorocyclohexyl)-N-(6-methyl-5-((2-(1-methyl-1H-pyrazol-4-yl)pyridin-4-yl)oxy)pyridin-2-yl)-2-oxoimidazolidine-1-carboxamide] | < 0.01
0.01 to 0.1 | Cc1ccc(-c2cc(Oc3ccc(NC(=O)N4CCN(C5CCOCC5)C4=O)nc3)ccn2)cn1 [Example 52, N-(5-((6′-methyl-[2,3′-bipyridin]-4-yl)oxy)pyridin-2-yl)-2-oxo-3-(tetrahydro-2H-pyran-4-yl)imidazolidine-1-carboxamide] | 0.01 to 0.1
0.01 to 0.1 | COCCCN1CCN(C(=O)Nc2ccc(Oc3ccnc(-c4cnn(C)c4)c3)cn2)C1=O [Example 11, 3-(3-methoxypropyl)-N-(5-((2-(1-methyl-1H-pyrazol-4-yl)pyridin-4-yl)oxy)pyridin-2-yl)-2-oxoimidazolidine-1-carboxamide] | 0.01 to 0.1
0.01 to 0.1 | Cn1cc(-c2cc(Oc3ccc(NC(=O)N4CCN(C5CCOC5)C4=O)nc3)ccn2)cn1 (stereo in doubt) [Example 12, (S)—N-(5-((2-(1-methyl-1H-pyrazol-4-yl)pyridin-4-yl)oxy)pyridin-2-yl)-2-oxo-3-(tetrahydrofuran-3-yl)imidazolidine-1-carboxamide] | 0.01 to 0.1
< 0.01 | COC[C@H](C)N1CCN(C(=O)Nc2ccc(Oc3ccnc(-c4cnn(C)c4)c3)cn2)C1=O [Example 16, (S)-3-(1-methoxypropan-2-yl)-N-(5-((2-(1-methyl-11H-pyrazol-4-yl)pyridin-4-yl)oxy)pyridin-2-yl)-2-oxoimidazolidine-1-carboxamide] | 0.01 to 0.1
0.01 to 0.1 | COCCCN1CCN(C(=O)Nc2ccc(Oc3ccnc(-c4cnn(C)c4)c3)c(C)n2)C1=O [Example 19, 3-(3-methoxypropyl)-N-(6-methyl-5-((2-(1-methyl-1H-pyrazol-4-yl)pyridin-4-yl)oxy)pyridin-2-yl)-2-oxoimidazolidine-1-carboxamide] | 0.01 to 0.1
0.01 to 0.1 | Cc1nc(NC(=O)N2CCN(C3CCCCC3)C2=O)ccc1Oc1ccnc(-c2cnn(C)c2)c1 [Example 22, 3-cyclohexyl-N-(6-methyl-5-((2-(1-methyl-1H-pyrazol-4-yl)pyridin-4-yl)oxy)pyridin-2-yl)-2-oxoimidazolidine-1-carboxamide] | < 0.01
0.01 to 0.1 | Cc1cc(-c2cc(Oc3ccc(NC(=O)N4CCN(C5CCOCC5)C4=O)nc3)ccn2)on1 [Example 7, N-(5-((2-(3-methylisoxazol-5-yl)pyridin-4-yl)oxy)pyridin-2-yl)-2-oxo-3-(tetrahydro-2H-pyran-4-yl)imidazolidine-1-carboxamide] | 0.01 to 0.1
< 0.01 | Cc1nc(NC(=O)N2CCN(C(C)(C)C)C2=O)ccc1Oc1ccnc(-c2cnn(C)c2)c1 [Example 33, 3-(tert-butyl)-N-(6-methyl-5-((2-(1-methyl-1H-pyrazol-4-yl)pyridin-4-yl)oxy)pyridin-2-yl)-2-oxoimidazolidine-1-carboxamide] | 0.01 to 0.1
0.01 to 0.1 | CN(C)C(=O)Nc1cc(Oc2ccc(NC(=O)N3CCN(C4CCOCC4)C3=O)nc2)ccn1 [Example 120, N-(5-((2-(3,3-dimethylureido)pyridin-4-yl)oxy)pyridin-2-yl)-2-oxo-3-(tetrahydro-2H-pyran-4-yl)imidazolidine-1-carboxamide] | 0.01 to 0.1
0.01 to 0.1 | Cn1cc(-c2cc(Oc3ccc(NC(=O)N4CCN(CCOC(F)(F)F)C4=O)nc3)ccn2)cn1 [Example 21, N-(5-((2-(1-methyl-1H-pyrazol-4-yl)pyridin-4-yl)oxy)pyridin-2-yl)-2-oxo-3-(2-(trifluoromethoxy)ethyl)imidazolidine-1-carboxamide] | 0.01 to 0.1
0.01 to 0.1 | CC(C)N1CCN(C(=O)Nc2ccc(Oc3ccnc(-c4cnn(C)c4)c3)cn2)C1=O [Example 36, 3-isopropyl-N-(5-((2-(1-methyl-1H-pyrazol-4-yl)pyridin-4-yl)oxy)pyridin-2-yl)-2-oxoimidazolidine-1-carboxamide] | < 0.01
